Holding throughout (assay): DTP human tumour cell line panel, 48 h
Experiment [1] concerns HCT-116.
For experiment [2], the system named is SK-OV-3.
Experiment [3] concerns NCI-H522.
In experiment [4] the test system is MDA-N.
Experiment [5] has as its system OVCAR-4.
Experiment [6] concerns T47D.
For experiment [7], the system named is DU-145.
Experiment [8] deals with OVCAR-8.
Experiment [9] has as its system OVCAR-3.
The test system of experiment [10] is SR.
The subject of experiment [11] is SNB-19.
The test system of experiment [12] is NCI-H23.
The subject of experiment [13] is 786-0.
The subject of experiment [14] is UO-31.
Experiment [15] concerns IGROV-1.
In experiment [16] the test system is SN12C.
Experiment [17] relates to HCT-15.
Experiment [18] has as its system COLO 205.
Experiment [19] concerns Malme-3M.
Experiment [20] has as its system MDA-MB-435.

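Dose response: 5 concentrations. Exposure: 48 h. Format: 96-well plates. Endpoint: linear interpolation; highest concentration if not reached. The concentration for 50% growth inhibition is given as GI50.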 Active and inactive are the calls of the source. Rule as the data show it: active = GI50 up to about 1.1 µM and inactive = higher.

Take `C=C1CC(CNc2cc(Cl)nc(N)n2)C1`: the GI50 is > 10 µM (inactive) in experiment [1]; 44.9 µM (inactive) in experiment [2]; 96.8 µM (inactive) in [3]; > 100 µM (inactive) in experiment [4]; 57.1 µM (inactive) in [5]; > 10 µM (inactive) in experiment [6]. Besides, the GI50 in experiment [7] is > 100 µM (inactive); in experiment [8], > 100 µM (inactive); in experiment [9], 95.7 µM (inactive); in [10], > 100 µM (inactive); in experiment [11] it was > 100 µM (inactive); in experiment [12] it was > 100 µM (inactive). The GI50 is > 100 µM (inactive) in experiment [13]; > 100 µM (inactive) in [14]; > 100 µM (inactive) in [15]; > 100 µM (inactive) in [16]; 67.8 µM in experiment [17]; > 100 µM (inactive) in experiment [18]. The GI50 in experiment [19] and in [20] was > 100 µM (inactive) in each case.
`CCOCc1nc2c(OC)c(-c3nc4ccc(N5CCN(C)CC5)cc4[nH]3)cc(OC)c2[nH]1`: the GI50 in experiment [1] was 34 µM (inactive); in experiment [2], 71.4 µM (inactive); in experiment [3] it was 23.5 µM (inactive); in experiment [4] it was 18.6 µM (inactive); in experiment [5], 71.8 µM (inactive); in [6], > 100 µM (inactive). Moreover, the GI50 was 68.5 µM (inactive) in experiment [7]; 80.2 µM (inactive) in [8]; 31.6 µM (inactive) in experiment [9]; 24.2 µM (inactive) in experiment [10]; 44.4 µM (inactive) in [11]; 37.8 µM (inactive) in experiment [12]. Besides, the GI50 in experiment [13] was 31 µM (inactive); in experiment [14], 22.1 µM (inactive); in experiment [15], 91.6 µM (inactive); in experiment [16], 74.3 µM (inactive); in experiment [17], 44.2 µM; in experiment [18], 18.9 µM (inactive). Further, the GI50 was 18 µM (inactive) in [19] and 20.6 µM (inactive) in [20].
Regarding `O=C1OC(OC/C(Br)=C(/Br)COC2OC(=O)C(Cl)=C2Cl)C(Cl)=C1Cl` (stereo not given), the GI50 in experiment [1] was 3.13 µM (inactive); in [2], 26.9 µM (inactive); in experiment [3], 2.14 µM (inactive); in experiment [4], 8.04 µM (inactive); in experiment [5], 7.6 µM (inactive); in [6], 9.95 µM (inactive). For the same molecule, the GI50 in experiment [7] was 16.1 µM (inactive); in [8], 6.93 µM (inactive); in experiment [9] it was 4.88 µM (inactive); in experiment [10], 0.724 µM (active); in [11] it was 18.4 µM (inactive); in experiment [12], 4.21 µM (inactive). Moreover, the GI50 in experiment [13] was 5.82 µM (inactive); in [14] it was 6.31 µM (inactive); in [15] it was 13.7 µM (inactive); in experiment [16], 9.1 µM (inactive); in experiment [17], 9.29 µM; in experiment [18], 4.29 µM (inactive). Besides, the figures for the GI50 in [19] and in experiment [20] were 7.57 µM (inactive) and 9.71 µM (inactive), respectively.
In the case of `Cc1cc2nc(-c3c(F)cccc3F)n(Cc3c(F)cccc3F)c2cc1C`, the GI50 is 12.1 µM (inactive) in [1]; 16.9 µM (inactive) in [2]; 12.7 µM (inactive) in [3]; 16 µM (inactive) in [4]; 15 µM (inactive) in [5]; 14.8 µM (inactive) in experiment [6]. Besides, the GI50 in experiment [7] is 23.6 µM (inactive); in experiment [8] it was 13.5 µM (inactive); in experiment [9] it was 16.4 µM (inactive); in experiment [10], 11.3 µM (inactive); in [11] it was 19.5 µM (inactive); in experiment [12], 19.6 µM (inactive). The GI50 is 17.9 µM (inactive) in experiment [13]; 11.1 µM (inactive) in [14]; 14.3 µM (inactive) in experiment [15]; 16.4 µM (inactive) in experiment [16]; 14.4 µM in [17]; 15.2 µM (inactive) in [18]. Further, the values for the GI50 in [19] and in experiment [20] were 27.9 µM (inactive) and 14.7 µM (inactive), respectively.
In the case of `Cc1nc2cc3ccccc3cc2[nH]c1=O`, the GI50 in experiment [1] was > 100 µM (inactive); in experiment [2], > 100 µM (inactive); in [3] it was 59.4 µM (inactive); in [4], > 100 µM (inactive); in experiment [5], 51.1 µM (inactive); in experiment [6], 55.2 µM (inactive). The GI50 in [7] is > 100 µM (inactive); in experiment [8] it was 70.5 µM (inactive); in experiment [9] it was 68.1 µM (inactive); in [10], 78.3 µM (inactive); in experiment [11], 92.3 µM (inactive); in [12], 89.5 µM (inactive). The GI50 in experiment [13] was 44.9 µM (inactive); in [14], 54.8 µM (inactive); in experiment [15], 47.9 µM (inactive); in experiment [16], > 100 µM (inactive); in experiment [17], 82 µM; in [18], > 100 µM (inactive). Besides, the GI50 in [19] and in [20] was > 100 µM (inactive) in each case.
For `COc1cc(S(=O)(=O)Nc2nc(-c3ccc(N4C(=O)/C(=C/c5ccccc5[N+](=O)[O-])N=C4c4ccccc4)cc3)cs2)ccc1Cl`, the GI50 in experiment [1] was 74 µM (inactive); in experiment [2], 95.7 µM (inactive); in experiment [3] it was 48.3 µM (inactive); in [4], > 100 µM (inactive); in experiment [5], > 100 µM (inactive); in experiment [6], 55.5 µM (inactive). Moreover, the GI50 in experiment [7] is > 100 µM (inactive); in experiment [8], > 100 µM (inactive); in experiment [9], 29.5 µM (inactive); in experiment [10] it was 34.3 µM (inactive); in experiment [11], 89.9 µM (inactive); in experiment [12], 29.9 µM (inactive). Besides, the GI50 in experiment [13] was > 100 µM (inactive); in experiment [14], > 100 µM (inactive); in experiment [15], 41.6 µM (inactive); in [16], > 100 µM (inactive); in experiment [17], above 100 µM; in [18], > 100 µM (inactive). For the same molecule, the figures for the GI50 in experiment [19] and in experiment [20] were > 100 µM (inactive) and 67.1 µM (inactive), respectively.
In the case of `C/C(=N\O)c1cccc(Nc2c3ccccc3nc3occc23)c1`, the GI50 in experiment [1] is 3.52 µM (inactive); in [2], 10.4 µM (inactive); in [3], 1.74 µM (inactive); in [4] it was 3.05 µM (inactive); in experiment [5], 1.8 µM (inactive); in experiment [6] it was 2.56 µM (inactive). The GI50 in [7] was 14.8 µM (inactive); in experiment [8], 13.7 µM (inactive); in experiment [9], 4.73 µM (inactive); in [10] it was 2.79 µM (inactive); in [11] it was 17.1 µM (inactive); in experiment [12] it was 4.99 µM (inactive). In addition, the GI50 is 13.4 µM (inactive) in experiment [13]; 7.18 µM (inactive) in experiment [14]; 2.77 µM (inactive) in [15]; 11.8 µM (inactive) in experiment [16]; 3.38 µM in experiment [17]; 5.09 µM (inactive) in [18]. For the same molecule, the GI50 in experiment [19] is 2.86 µM (inactive); in experiment [20], 2.24 µM (inactive).

Usually GI50 stands for the concentration that inhibits growth by half.

(Values after ChEMBL document CHEMBL1201862, “PubChem BioAssay data set” (2004).)
